From PMC5706701, “Development of a homogenous high-throughput assay for inositol hexakisphosphate kinase 1 activity” (PLoS ONE, 2017) come the findings set out here.

The target of the test is T1, Human IP6K1 (Homo sapiens, UniProt Q92551).
T1 construct: GST (N, cleaved yes); made in house; host or cells: C43 E. coli, pGEX-6P-2
The test is described as follows: IP6K1 high-throughput screen of the Sigma LOPAC (ADP-Glo Max, single point).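 Further: final compound concentration 10µM in 5% DMSO.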 In kind it is biochemical. In general terms: In ADP-Glo the light output rises with the ADP produced.

Setting [1] is: LOPAC single-point screen, ADP-Glo Max raw signal per well.
[2] abbreviates: LOPAC single-point screen, Z-score from raw signal with plate average and StDev.
Where [3] appears, read: Sigma LOPAC single-point screen, ADP-Glo Max raw signal per well.
The mark [4] stands for this setting: Sigma LOPAC single-point screen, Z-score from plate average and StDev.
Setting [5] is: LOPAC single-point screen, ADP-Glo Max luminescence raw signal per well.
Setting [6] is: LOPAC single-point screen, Z-score against plate average and StDev.

Counter-ions that a name gives are not always drawn. Like-named read-outs stand apart in the source and are kept apart here.

T1 sequence (Q92551 whole entry): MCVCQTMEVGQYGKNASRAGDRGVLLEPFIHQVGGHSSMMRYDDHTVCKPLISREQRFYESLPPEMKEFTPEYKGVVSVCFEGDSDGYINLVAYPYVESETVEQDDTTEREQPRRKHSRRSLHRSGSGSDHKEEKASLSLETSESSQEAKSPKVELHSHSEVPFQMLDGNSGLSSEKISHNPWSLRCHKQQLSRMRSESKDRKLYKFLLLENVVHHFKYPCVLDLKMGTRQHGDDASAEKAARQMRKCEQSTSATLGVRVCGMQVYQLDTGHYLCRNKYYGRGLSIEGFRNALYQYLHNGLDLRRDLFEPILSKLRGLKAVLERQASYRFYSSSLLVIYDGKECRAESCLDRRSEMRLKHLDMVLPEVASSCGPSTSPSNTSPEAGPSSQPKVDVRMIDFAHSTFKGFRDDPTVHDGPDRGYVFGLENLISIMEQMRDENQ

As to `COc1ccccc1N1CCN(CCN(C(=O)C2CCCCC2)c2ccccn2)CC1.O=C(O)/C=C\C(=O)O` [WAY-100635 maleate], the “Raw Signal” value under setting [1] amounted to 54317. Under setting [2], the Z-score is reported as -0.3316.

For the compound `COc1cccc(OC)c1OCCNCC1COc2ccccc2O1.Cl` (stereo not drawn) [WB-4101 hydrochloride], under setting [3], the “Raw Signal” value is listed as 58268. Further, the Z-score under setting [4] was determined as 0.6298.

In the case of `C#C[C@]1(O)CC[C@H]2[C@@H]3CCC4=Cc5nc6nc7ccccc7n6cc5C[C@]4(C)[C@H]3CC[C@@]21C` [WIN 62,577], the “Raw Signal” value under setting [3] amounted to 58080. Moreover, the Z-score under setting [4] is 0.3995.

For `COC[C@H]1OC(=O)c2coc3c2[C@@]1(C)C1=C(C3=O)[C@@H]2CCC(=O)[C@@]2(C)C[C@H]1OC(C)=O` [Wortmannin from Penicillium funiculosum], the “Raw Signal” value under setting [5] stood at 53582. For the same compound, the Z-score (LOPAC single-point screen, Z-score relative to plate average and StDev) is listed as -0.4744.

Take `CC(Oc1ccc(Oc2cnc3ccc(Cl)cc3n2)cc1)C(=O)O` (stereo not drawn) [XK469]: the “Raw Signal” value under setting [1] turned out to be 55038. For the same compound, under setting [2], the Z-score was -0.1915.

As to `O=C(NCCNCC(O)COc1ccc(O)cc1)N1CCOCC1` (stereo not drawn) [Xamoterol hemifumarate], under setting [3], the “Raw Signal” value stood at 60033. Besides, the Z-score under setting [4] is on record as 0.7789.

`CCCn1c(=O)c2[nH]c(-c3ccc(OCC(=O)NCCN)cc3)nc2n(CCC)c1=O` [Xanthine amine congener]: under setting [3], the “Raw Signal” value is on record as 61437. In addition, under setting [4], the Z-score came to 1.052.

As to `Cc1cccc(C)c1N=C1NCCCS1` [Xylazine hydrochloride], the “Raw Signal” value is reported as 56727 and the Z-score came to 0.1366.

For `Cc1cc(C(C)(C)C)cc(C)c1CC1=NCCN1` [Xylometazoline hydrochloride], the “Raw Signal” value under setting [1] is reported as 57404. This compound also had a Z-score under setting [6] of 0.2681.

Take `C[C@@H](N)[C@H]1CC[C@H](C(=O)Nc2ccncc2)CC1.Cl.Cl` [Y-27632 dihydrochloride]: under setting [1], the “Raw Signal” value is 53228. The Z-score under setting [2] is -0.3938.

As to `OCc1ccc(-c2nn(Cc3ccccc3)c3ccccc23)o1` [YC-1], the “Raw Signal” value under setting [1] was 55059. The Z-score under setting [2] is recorded as -0.1874.

In the case of `COc1ccc(CCN(C)CCc2ccc(OC)c(OC)c2)cc1OC.Cl` [YS-035 hydrochloride], the “Raw Signal” value under setting [1] is given as 55463. Further, under setting [2], the Z-score is reported as -0.109.

As for `COC(=O)[C@@H]1[C@H]2C[C@H]3c4[nH]c5ccccc5c4CCN3C[C@@H]2CC[C@@H]1O` [Yohimbine hydrochloride], the “Raw Signal” value under setting [1] was 57737. Besides, the Z-score under setting [6] was found to be 0.3328.

In the case of `O=C(N[C@@H](Cc1ccccc1)C(=O)CCl)OCc1ccccc1` [Z-L-Phe chloromethyl ketone], the “Raw Signal” value under setting [1] is 56278. Besides, under setting [2], the Z-score is given as -0.288.

In the case of `CC(C)N(CCC(=O)c1ccc2ccccc2c1)Cc1ccccc1.Cl` [ZM 39923 hydrochloride], the “Raw Signal” value under setting [1] amounted to 54461. Under setting [6], the Z-score is listed as 0.01134.

Take `CCCOc1ccccc1-c1nc2nn[nH]c2c(=O)[nH]1` [Zaprinast]: the “Raw Signal” value under setting [1] is 56198. In addition, the Z-score under setting [6] is on record as 0.03384.

For `COc1cc(-c2ccc(=O)[nH]n2)ccc1OC(F)F` [Zardaverine], the “Raw Signal” value under setting [1] is on record as 57604. Moreover, the Z-score under setting [6] is 0.307.

Consider `CN(C)C/C=C(/c1ccc(Br)cc1)c1cccnc1` [Zimelidine dihydrochloride], for which the “Raw Signal” value under setting [5] stood at 63127. For the setting “LOPAC single-point screen, Z-score from plate average and StDev”, this compound displayed a Z-score of 1.38.

Regarding `NS(=O)(=O)Cc1noc2ccccc12` [Zonisamide sodium], under setting [1], the “Raw Signal” value worked out at 56166. This compound returned a Z-score under setting [6] of 0.02763.

In the case of `CN1CCN(C(=O)OC2c3nccnc3C(=O)N2c2ccc(Cl)cn2)CC1` (stereo not drawn) [Zopiclone], under setting [1], the “Raw Signal” value stood at 56506. The compound further had a Z-score under setting [6] of 0.09368.

Consider `N=C(N)NC(CCC(=O)O)C(=O)O` (stereo not drawn) [alpha-Guanidinoglutaric acid], for which the “Raw Signal” value under setting [1] stood at 54052. For the same compound, the Z-score under setting [2] is on record as -0.2265.
